Measurements taken from PubChem BioAssay (NCI).
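The compound was tested at five concentrations on cells cultured in 96-well plates, with a 48-hour exposure period. Abbreviation: GI50, concentration required for 50% inhibition of growth. The concentration for full growth arrest is given as TGI.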

Experiments:
Test in all cases: NCI-60 cell line screen, 48 h
786-0 renal = test system: 786-0 renal
BT-549 breast = test system: BT-549 breast
EKVX NSCLC = test system: EKVX NSCLC
HCC-2998 colon = test system: HCC-2998 colon
HT29 colon = test system: HT29 colon
MCF7 breast = test system: MCF7 breast
NCI-H460 lung = test system: NCI-H460 lung
OVCAR-4 ovarian = test system: OVCAR-4 ovarian
PC-3 prostate = test system: PC-3 prostate
U251 CNS = test system: U251 CNS

SMILES	GI50 (786-0 renal) [µM]	TGI (786-0 renal) [µM]	GI50 (BT-549 breast) [µM]	TGI (BT-549 breast) [µM]	GI50 (EKVX NSCLC) [µM]	TGI (EKVX NSCLC) [µM]	TGI (HCC-2998 colon) [µM]	GI50 (HT29 colon) [µM]	TGI (HT29 colon) [µM]	GI50 (MCF7 breast) [µM]	TGI (MCF7 breast) [µM]	GI50 (NCI-H460 lung) [µM]	TGI (NCI-H460 lung) [µM]	GI50 (OVCAR-4 ovarian) [µM]	TGI (OVCAR-4 ovarian) [µM]	GI50 (PC-3 prostate) [µM]	TGI (PC-3 prostate) [µM]	GI50 (U251 CNS) [µM]	TGI (U251 CNS) [µM]	GI50 (HCC-2998 colon) [µM]
COc1cc2c3c(n(C)c(=O)c2cc1OC)-c1cc2c(cc1/C3=C\CCCBr)OCO2	8.5	> 40.2	> 20.5	> 51.9	15.6	> 62.5	> 51.3	> 100	> 100	16.2	> 64.8	26.9	> 100	39.2	> 100	> 95.2	> 100	13.2	> 60.3	–
CCOC(=O)C1=C(C)NC2SC(=O)/C(=C\c3ccccc3)N2C1c1ccccc1 (centres undefined)	> 100	> 100	> 100	> 100	> 100	> 100	> 100	> 100	> 100	> 100	> 100	93.5	> 100	78.1	> 100	31	> 100	> 100	> 100	> 100
CC1=C([Se]CC(OC(=O)[C@@H](CO)NC(=O)OC(C)(C)C)C(=O)NC(C)(C)C)C(=O)c2ccccc2C1=O (some centres undefined)	1.95	3.39	1.59	2.93	1.76	3.71	3.23	2.3	4.74	1.75	3.97	0.456	1.8	1.23	2.49	1.35	2.85	0.986	2.56	1.82
CN1c2ccccc2S(=O)(=O)n2c(COc3ccc(Cl)cc3)nnc21	–	> 100	–	> 100	–	> 100	> 100	–	> 100	–	> 100	–	> 100	–	> 100	–	> 100	–	> 100	–
c1ccc(-c2nn(-c3ccccc3)[n+](-c3cccc4ccccc34)n2)cc1	5.1	29.3	1.85	17.9	0.583	33.3	14.8	0.918	15.1	0.335	10.6	1.43	10.4	0.394	12.4	0.583	> 100	0.967	> 100	1.91
COc1ccc(Cc2cnc(NC(=O)c3sc4ccccc4c3Cl)s2)cc1	0.652	> 100	1.18	> 100	0.48	> 100	> 100	0.37	> 100	0.355	> 100	0.365	> 100	2.82	> 100	0.405	> 100	0.382	> 100	0.547
